Assay [1] addresses JAK1 kinase (Homo sapiens (Human), UniProt P23458). Description: Biochemical Potency JAK1 (TR-FRET LANCE Ultra kinase assay). As to conditions: ATP corresponding to Km. The text has this:
The objective of this study was to assess the activity of novel JAK inhibitors measuring the capability of compounds to inhibit JAK1 kinase activity in a biochemical time-resolved fluorescence resonance energy transfer (TR-FRET) LANCE assay. In
LANCE Ultra kinase assay in the presence of JAK1 kinase and ATP (corresponding to Km), the ULight peptide substrate (LANCE Ulight-JAK-1 (Tyr1023) Peptide, Perkin Elmer, TRF0121) was phosphorylated. It was then captured by a Eu-anti-phospho-substrate antibody (LANCE Eu-W1024 Anti-phosphotyrosine (PT66), Perkin Elmer, AD0069), which brought the Eu-chelate donor and ULight acceptor dyes into close proximity. Upon excitation at 320 nm, the Eu-chelate transfers its energy to the ULight dye, resulting in a fluorescent light emission at 665 nm. Inhibitors were tested at 11 consecutive 5-fold dilutions starting from 30 μM (30 μM—3 pM) in duplicate. Calculation of IC50 data, curves and QC analysis were made using Excel tools and GraphPadPrism software. QC criteria parameters: Z′≥0.5, Hill Slope range 0.5 to 5, S:B>2.
(In general: TR-FRET usually uses a lanthanide donor and a delayed reading to cut background.)

Assay [2] has as its system IL-2 induced phosphorylation of STAT5 (JAK1/JAK3 activity) in human PBMCs. Kind of assay: Cell Based assay PBMC (IL-2 stimulated pSTAT5). As to conditions: 0.5 h, rh IL-2, 30 min incubation, pSTAT5 ELISA, data displayed as pIC50. The method, then:
In addition to enzymatic potency, the effects of the inhibitors against JAK1/JAK3 activity in a cellular assay was characterized against IL-2 induced phosphorylation of STATS level in human peripheral blood mononuclear cells (PBMCs).
PBMC have been isolated from human healthy volunteers. Cells were seeded in wells and treated with compounds and rh IL-2. After 30 min incubation cells were lysed and pSTAT5 determined by PathScan phospho-stats (Tyr694) ELISA (Cell signaling). Inhibitors were tested at 11 consecutive 5-fold dilutions starting from 30 μM (30 μM—3 pM) in duplicate. Calculation of IC50 data, curves and QC analysis were made using
Excel tools and GraphPadPrism software. QC criteria parameters: Z′≥0.35, Hill Slope range 0.5 to 5, S:B >2.

Sequence of JAK1 kinase (P23458 whole entry): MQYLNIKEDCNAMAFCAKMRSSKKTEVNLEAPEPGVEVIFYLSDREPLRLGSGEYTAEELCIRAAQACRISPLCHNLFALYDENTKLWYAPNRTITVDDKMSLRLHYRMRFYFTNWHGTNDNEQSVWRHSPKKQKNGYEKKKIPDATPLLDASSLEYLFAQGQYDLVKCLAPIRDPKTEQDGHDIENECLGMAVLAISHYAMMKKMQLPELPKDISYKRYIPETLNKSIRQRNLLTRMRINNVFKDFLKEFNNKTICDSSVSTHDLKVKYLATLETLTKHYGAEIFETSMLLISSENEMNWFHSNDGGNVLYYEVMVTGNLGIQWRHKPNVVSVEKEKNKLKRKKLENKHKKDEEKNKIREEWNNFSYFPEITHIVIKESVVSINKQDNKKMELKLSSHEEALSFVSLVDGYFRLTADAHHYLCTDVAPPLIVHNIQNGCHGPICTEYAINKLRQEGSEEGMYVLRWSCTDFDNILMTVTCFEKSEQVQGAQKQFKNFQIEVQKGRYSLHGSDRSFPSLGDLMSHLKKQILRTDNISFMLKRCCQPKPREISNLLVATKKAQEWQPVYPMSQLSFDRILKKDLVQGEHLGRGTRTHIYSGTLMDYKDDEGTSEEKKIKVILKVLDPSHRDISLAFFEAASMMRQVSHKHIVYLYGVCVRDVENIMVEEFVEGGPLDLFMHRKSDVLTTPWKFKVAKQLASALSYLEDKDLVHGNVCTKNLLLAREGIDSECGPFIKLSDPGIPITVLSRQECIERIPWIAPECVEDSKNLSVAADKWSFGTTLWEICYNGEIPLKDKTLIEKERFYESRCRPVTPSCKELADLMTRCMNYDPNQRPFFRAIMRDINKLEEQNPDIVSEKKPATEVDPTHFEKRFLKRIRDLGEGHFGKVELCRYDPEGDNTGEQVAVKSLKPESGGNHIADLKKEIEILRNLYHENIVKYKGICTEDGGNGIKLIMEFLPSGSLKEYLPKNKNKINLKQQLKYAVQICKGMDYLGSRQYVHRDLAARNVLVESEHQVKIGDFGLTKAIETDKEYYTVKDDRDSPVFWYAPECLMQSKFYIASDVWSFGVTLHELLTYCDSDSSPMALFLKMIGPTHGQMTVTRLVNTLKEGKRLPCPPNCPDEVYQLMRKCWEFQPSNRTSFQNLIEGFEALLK

Consider `CCOC(=O)c1cnc2ccsc2c1NC1CCN(c2ccc(C#N)c(F)c2)C1` (stereo not drawn) [Example 7, ethyl 7-((1-(4-cyano-3-fluorophenyl)pyrrolidin-3-yl)amino)thieno[3,2-b]pyridine-6-carboxylate], for which the “Biochemical Potency JAK 1 (pIC50)” value in assay [1] worked out at 6. Also, the IC50 – broadly, the concentration needed to halve the response being measured – in assay [2] is 2510 nM.

As to `N#Cc1ccc(N2CCC(Nc3c(C(=O)O)cnc4ccsc34)C2)cc1F` (stereo not drawn) [Example 8, 7-((1-(4-cyano-3-fluorophenyl)pyrrolidin-3-yl)amino)thieno[3,2-b]pyridine-6-carboxylic acid], the “Biochemical Potency JAK 1 (pIC50)” value in assay [1] was determined as 5.3. In assay [2], this molecule showed a 50% inhibitory concentration (IC50) of 31600 nM.

`CN(c1ncnc2[nH]ccc12)C1CCN(C(C(=O)O)c2ccc(Cl)cc2F)C1` (stereo not drawn) [Example 6, 2-(4-chloro-2-fluorophenyl)-2-(3-(methyl(7H-pyrrolo[2,3-d]pyrimidin-4-yl)amino)pyrrolidin-1-yl)acetic acid]: the “Biochemical Potency JAK 1 (pIC50)” value in assay [1] is recorded as 5.3.

For the molecule `COC(=O)C(c1ccc(Cl)cc1F)N1CCC(N(C)c2ncnc3[nH]ccc23)C1` (stereo not drawn) [Example 5, methyl 2-(4-chloro-2-fluorophenyl)-2-(3-(methyl(7H-pyrrolo[2,3-d]pyrimidin-4-yl)amino)pyrrolidin-1-yl)acetate], the “Biochemical Potency JAK 1 (pIC50)” value in assay [1] is recorded as 7.6.

Take `CN(c1ncnc2[nH]ccc12)C1CCN(c2ccc(C#N)nc2)C1` (stereo not drawn) [Example 2, 5-(3-(methyl(7H-pyrrolo[2,3-d]pyrimidin-4-yl)amino)pyrrolidin-1-yl)picolinonitrile]: the “Biochemical Potency JAK 1 (pIC50)” value in assay [1] came to 7.9. Also, the IC50 in assay [2] was 251 nM.

For the molecule `CN(c1ncnc2[nH]ccc12)[C@@H]1CCN(c2ccc(C(=O)Nc3nccs3)cn2)C1` [Example 3, (R)-6-(3-(methyl(7H-pyrrolo[2,3-d]pyrimidin-4-yl)amino)pyrrolidin-1-yl)-N-(thiazol-2-yl)nicotinamide], in assay [1], the “Biochemical Potency JAK 1 (pIC50)” value turned out to be 7.7. In assay [2], the IC50 is 501 nM.

As for `N#Cc1ccc(N2CCC(Nc3c(C(N)=O)cnc4ccsc34)C2)cc1F` (stereo not drawn) [Example 4, 7-((1-(4-cyano-3-fluorophenyl)pyrrolidin-3-yl)amino)thieno[3,2-b]pyridine-6-carboxamide], the “Biochemical Potency JAK 1 (pIC50)” value in assay [1] worked out at 7. The molecule also showed an IC50 in assay [2] of 3160 nM.

On to `CN(c1ncnc2[nH]ccc12)[C@@H]1CCN(c2ccc(C#N)c(F)c2)C1` [Example 1, (R)-2-fluoro-4-(3-(methyl(7H-pyrrolo[2,3-d]pyrimidin-4-yl)amino)pyrrolidin-1-yl)benzonitrile], for which the “Biochemical Potency JAK 1 (pIC50)” value in assay [1] is reported as 8.6. Besides, in assay [2], half-maximal inhibition (IC50) was put at 50.1 nM.

Turning to `CN(c1ncnc2[nH]ccc12)[C@@H]1CCN(c2cc(F)ccc2C#N)C1` [Example 9, (R)-4-fluoro-2-(3-(methyl(7H-pyrrolo[2,3-d]pyrimidin-4-yl)amino)pyrrolidin-1-yl)benzonitrile], the “Biochemical Potency JAK 1 (pIC50)” value in assay [1] worked out at 7.6. The IC50 in assay [2] is 398 nM.

For `CN(c1ncnc2[nH]ccc12)[C@@H]1CCN(c2cnc(C#N)nc2)C1` [Example 10, (R)-5-(3-(methyl(7H-pyrrolo[2,3-d]pyrimidin-4-yl)amino)pyrrolidin-1-yl)pyrimidine-2-carbonitrile], the “Biochemical Potency JAK 1 (pIC50)” value in assay [1] is recorded as 7.9. In assay [2], this molecule gave a half-maximal inhibitory concentration (IC50) of 200 nM.

The values above are taken from patent US20240166651A1, “HETEROCYCLIC DERIVATIVES AS JANUS KINASE INHIBITORS” (CHIESI FARMACEUTICI S.P.A., priority 2021, published 2024).
